The source of these data is patent US8889650B2, “Antimelancholic medicine prepared with jujube camp materials” (Beijing Wonner Biotech, Ltd. Co., priority 2007, dated 2014).

Molecules are shown by their SMILES.

The test system of experiment [1] is ICR mice. Description: Mouse swimming by compulsion experiment. The experiment is classed as in vivo. An excerpt:
Experiment 2: The Influence of Embodiment 3 in the Mouse Swimming by Compulsion Experiment 2.1 Experimental animals: ICR mice, male, 22.0±2 g body weight, secondary, were provided by the Experimental Animal Science Department of Capital Medical University, Beijing. 2.2 Experiment pharmaceuticals: The pharmaceutical of Embodiment 3 was provided by Beijing Wonner Biotech. Ltd. Co., and Paroxetine (Paxil) was the product of Zhong Mei Tianjin Smith Kline pharmaceuticals Co. Ltd. 2.4 Dose designs: 1. High dose of Embodiment 3 (5 mg/kg/d); 2. middle dose of Embodiment 3 (2.5 mg/kg/d); and 3. low dose of Embodiment 3 (1.25 mg/kg/d). 2.5.1 Group division and administration of drug: The mice were grouped randomly, with 10 mice per group. 1. High dose of Embodiment 3 (5 mg/kg, P.O., administered for 7 days); 2. middle dose of Embodiment 3 (2.5 mg/kg, P.O., administered for 7 days); 3. low dose of Embodiment 3 (1.25 mg/kg, P.O., administered for 7 days); 4. Paroxetine (3 mg/kg, P.O., administered for 7 days); and 5. physiological saline (P.O.). […] The accumulative time of non-movement of the mouse in the water for the last 5 minutes was recorded. 2.5.3 Statistic calculation: The experimental data are represented as X±SD, and the experimental result was calculated as ANOVA by SPSS 11.5 statistic software.

Experiment [2] has as its system ICR mice. Description: Mouse tail-hanging experiment. Type of experiment: in vivo. An excerpt: Experiment 1: The Influence of Embodiment 3 in the Mouse Tail-Hanging Experiment 1.1 Experimental animals: ICR mice, male, 22.0±2 g of body weight, secondary, were provided by the Experimental Animal Science Department of Capital Medical University, Beijing. 1.2 Experiment pharmaceuticals: The pharmaceutical of Embodiment 3 was provided by Beijing Wonner Biotech. Ltd. Co., and Paroxetine (Paxil) was the product of Zhong Mei Tianjin Smith Kline pharmaceuticals Co. Ltd. 1.4 Dose designs: 1. High dose of Embodiment 3 (5 mg/kg/d); 2. middle dose of Embodiment 3 (2.5 mg/kg/d); and 3. low dose of Embodiment 3 (1.25 mg/kg/d). 1.5.1 Group division and administration of drug: The mice were grouped randomly, with 10 mice per group. 1. High dose of Embodiment 3 (5 mg/kg, per oral (P.O.), administered for 7 days); 2. middle dose of Embodiment 3 (2.5 mg/kg, P.O., administered for 7 days); 3. low dose of Embodiment 3 (1.25 mg/kg, P.O., administered for 7 days); 4. Paroxetine (3 mg/kg, P.O., administered for 7 days); and 5. physiological saline (P.O.). After 1 hour of the last drug administration, the mouse tail-hanging experiment was proceeded. […] The time of non-movement of the mouse for the last 5 minutes was recorded. 1.5.3 Statistic calculation: The experimental data are represented as X±SD , and the experimental result was calculated as analysis of variance (ANOVA) by SPSS 11.5 statistic software.

`Fc1ccc([C@@H]2CCNC[C@H]2COc2ccc3c(c2)OCO3)cc1` [Paroxetine]: the “Effect on time of non-movement in the mouse swimming by compulsion test (conclusion)” value with ICR mice [1] (high dose of Embodiment 3, Paroxetine) is on record as “decreased the time of non-movement”. In the experiment with ICR mice [1] (table title: time of non-movement in swimming by compulsion, Paroxetine 3 mg/kg P.O. for 7 days, 25° C. water, last 5 minutes, X±SD), this molecule came in with an immobility time of 83.4 ± 40.7 s. Also, the Time of non-movement in the experiment with ICR mice [2] (Paroxetine 3 mg/kg P.O. for 7 days, tail hung 6 min, last 5 min recorded, 1 hour after last administration, X±SD) is recorded as 67.59 ± 39.09 s. Besides, the “Effect on time of non-movement after the mouse's tail was hung (conclusion)” value in the experiment on ICR mice [2] (high and middle doses of Embodiment 3, Paroxetine, significant in comparison with the physiological saline control) is “decreased the time of non-movement”.
